{"source": "patent US12447156B2", "about": "“Treating progressive familial intrahepatic cholestasis (PFIC) with IBAT inhibitors” (ALBIREO AB, priority 2020, dated 2025)", "key": {"[1]": {"tested_on": "patients with PFIC3 or PFIC6", "test": "PEDFIC 2: efficacy and safety in patients with PFIC3 or PFIC6", "format": "in vivo, human", "description": "In PEDFIC 2, eligible patients are enrolled into one of 2 cohorts, based on the following criteria: Cohort 1 includes pediatric patients with PFIC1 or PFIC2 from PEDFIC 1 and cohort 2 includes patients of any age with any PFIC type; these are newly enrolled patients. In both cohorts, eligible patients are those with genetically confirmed PFIC, elevated serum bile acids (≥100 μmol/L), and significant pruritus (i.e., itching or scratching score of ≥2 per patient/caregiver report using the PRUCISION instrument). PEDFIC 2 includes a 72-week treatment period in which all patients receive oral, once-daily odevixibat 120 μg/kg.\nChange from baseline in serum bile acids, pruritus, hepatic biochemical parameters, growth, and sleep; serum bile acid response (i.e., serum bile acids reduced ≥70% or levels ≤70 μmol/L); proportion of positive pruritus assessments (PPAs) at the patient level (i.e., pruritus score ≤1 or a ≥1-point drop from baseline); and treatment-emergent adverse events (TEAEs). Patient pruritus and sleep were evaluated twice daily by caregivers using the validated PRUCISION scale; pruritus responses range from 0 to 4, with higher scores indicating worse symptom."}, "[2]": {"tested_on": "children with PFIC1 or PFIC2", "test": "PEDFIC 1: safety (treatment-emergent adverse events)", "source_text": "The primary safety analysis for PEDFIC 1 was based on the incidence of treatment-emergent adverse events (TEAEs). TEAEs were categorized by causality, severity, and seriousness for odevixibat and placebo. Other safety assessments included physical examinations, vital signs, laboratory tests, and abdominal ultrasounds (liver and spleen).\nSecondary endpoints, exploratory endpoints, subgroup analyses, and safety data were summarized descriptively. Adverse events (AEs) were coded using Medical Dictionary for Regulatory Activities version 23.0."}, "[3]": {"settings": "patient with PFIC6, N=1, oral once-daily 120 μg/kg"}, "[4]": {"settings": "patients with PFIC3, N=4, oral once-daily 120 μg/kg"}, "[5]": {"settings": "PEDFIC 1, 120 μg/kg/day, n = 19"}}, "note": "“Also recorded” adds a separate entry of the source. Marks after values point to notes of the source that are not given here.", "data": [{"compound": "CCCCC1(CCCC)CN(c2ccccc2)c2cc(SC)c(OCC(=O)N[C@@H](C(=O)N[C@@H](CC)C(=O)O)c3ccc(O)cc3)cc2S(=O)(=O)N1", "note": "[Odevixibat, 1,1-dioxo-3,3-dibutyl-5-phenyl-7-methylthio-8-(N-{(R)-α-[N-((S)-1-carboxypropyl)carbamoyl]-4-hydroxybenzyl}carbamoylmethoxy)-2,3,4,5-tetrahydro-1,2,5-benzothiadiazepine]", "values": [{"measurement": "Height Z score, change from baseline to week 36", "setting": "[1]; [3]", "result": 0.1}, {"measurement": "Pruritus score, change from baseline to weeks 34-36", "setting": "[1]; [3]", "result": "−1.8^a"}, {"measurement": "Serum ALT, change from baseline to week 36", "setting": "[1]; [3]", "result": 89, "unit": "U/L"}, {"measurement": "Serum bile acids, change from baseline to week 36", "setting": "[1]; [3]", "result": -78, "unit": "µmol/L"}, {"measurement": "Total bilirubin, change from baseline to week 36", "setting": "[1]; [3]", "result": -83, "unit": "µmol/L"}, {"measurement": "Weight Z score, change from baseline to week 36", "setting": "[1]; [3]", "result": 0.5}, {"measurement": "% of days needing help falling asleep, mean (SE) change from baseline to weeks 34-36", "setting": "[1]; [4]", "result": "−29 (24)^a %"}, {"measurement": "% of days needing soothing, mean (SE) change from baseline to weeks 34-36", "setting": "[1]; [4]", "result": "−28 (21)^a %"}, {"measurement": "% of days sleeping with caregiver, mean (SE) change from baseline to weeks 34-36", "setting": "[1]; [4]", "result": "−27 (22)^a %"}, {"measurement": "% of days with bleeding associated with scratching, mean (SE) change from baseline to weeks 34-36", "setting": "[1]; [4]", "result": "6 (6)^a %"}, {"measurement": "Height Z score, mean (SE) change from baseline to week 36", "setting": "[1]; [4]", "result": "0.2 (0.2)"}, {"measurement": "Pruritus score, mean (SE) change from baseline to weeks 34-36", "setting": "[1]; [4]", "result": "−1.6 (0.4)^a"}, {"measurement": "Serum ALT, mean (SE) change from baseline to week 36", "setting": "[1]; [4]", "result": "67 (21) U/L"}, {"measurement": "Serum bile acids, mean (SE) change from baseline to week 36", "setting": "[1]; [4]", "result": "−91 (37) μmol/L"}, {"measurement": "Total bilirubin, mean (SE) change from baseline to week 36", "setting": "[1]; [4]", "result": "18 (13) μmol/L"}, {"measurement": "Weight Z score, mean (SE) change from baseline to week 36", "setting": "[1]; [4]", "result": "0.1 (0.4)"}, {"measurement": "patients who experienced any TEAE", "setting": "[1]; patients with PFIC3 or PFIC6", "result": "5 of 6"}, {"measurement": "serious TEAEs, TEAEs leading to discontinuation, or deaths", "setting": "[1]; patients with PFIC3 or PFIC6", "result": "no serious TEAEs, TEAEs leading to discontinuation, or deaths"}, {"measurement": "tolerability", "setting": "[1]; patients with PFIC3 or PFIC6, up to the data cutoff in PEDFIC 2", "result": "generally well tolerated"}, {"measurement": "positive pruritus assessments (PPAs)", "setting": "[1]; weeks 0-22, 1 additional patient with PFIC3", "result": 99, "unit": "%"}, {"measurement": "positive pruritus assessments (PPAs)", "setting": "[1]; weeks 0-36, 5 patients with available data (4 with PFIC3, 1 with PFIC6)", "result": "≥ 85", "unit": "%"}, {"measurement": "Any TEAE, patients", "setting": "[2]; PEDFIC 1, 40 μg/kg/day, n = 23", "result": "19 (82.6) n (%)"}, {"measurement": "Drug-related TEAE, patients", "setting": "[2]; PEDFIC 1, 40 μg/kg/day, n = 23", "result": "7 (30.4) n (%)"}, {"measurement": "Drug-related TEAE: ALT increased, patients", "setting": "[2]; PEDFIC 1, 40 μg/kg/day, n = 23", "result": "2 (8.7) n (%)"}, {"measurement": "Drug-related TEAE: AST increased, patients", "setting": "[2]; PEDFIC 1, 40 μg/kg/day, n = 23", "result": "2 (8.7) n (%)"}, {"measurement": "Drug-related TEAE: Blood bilirubin increased, patients", "setting": "[2]; PEDFIC 1, 40 μg/kg/day, n = 23", "result": "2 (8.7) n (%)"}, {"measurement": "Drug-related TEAE: Diarrhea/frequent bowel movements, patients", "setting": "[2]; PEDFIC 1, 40 μg/kg/day, n = 23", "result": "2 (8.7) n (%)"}, {"measurement": "Liver-related TEAEs, patients", "setting": "[2]; PEDFIC 1, 40 μg/kg/day, n = 23", "result": "5 (21.7) n (%)"}, {"measurement": "Mild TEAE, patients", "setting": "[2]; PEDFIC 1, 40 μg/kg/day, n = 23", "result": "11 (47.8) n (%)"}, {"measurement": "Moderate TEAE, patients", "setting": "[2]; PEDFIC 1, 40 μg/kg/day, n = 23", "result": "7 (30.4) n (%)"}, {"measurement": "Serious TEAEs, patients", "setting": "[2]; PEDFIC 1, 40 μg/kg/day, n = 23", "result": "0 n (%)"}, {"measurement": "Severe TEAE, patients", "setting": "[2]; PEDFIC 1, 40 μg/kg/day, n = 23", "result": "1 (4.3) n (%)"}, {"measurement": "TEAEs leading to discontinuation, patients", "setting": "[2]; PEDFIC 1, 40 μg/kg/day, n = 23", "result": "0 n (%)"}, {"measurement": "Any TEAE, patients", "setting": "[2]; [5]", "result": "16 (84.2) n (%)"}, {"measurement": "Drug-related TEAE, patients", "setting": "[2]; [5]", "result": "7 (36.8) n (%)"}, {"measurement": "Drug-related TEAE: ALT increased, patients", "setting": "[2]; [5]", "result": "2 (10.5) n (%)"}, {"measurement": "Drug-related TEAE: AST increased, patients", "setting": "[2]; [5]", "result": "1 (5.3) n (%)"}, {"measurement": "Drug-related TEAE: Blood bilirubin increased, patients", "setting": "[2]; [5]", "result": "2 (10.5) n (%)"}, {"measurement": "Drug-related TEAE: Diarrhea/frequent bowel movements, patients", "setting": "[2]; [5]", "result": "2 (10.5) n (%)"}, {"measurement": "Liver-related TEAEs, patients", "setting": "[2]; [5]", "result": "6 (31.6) n (%)"}, {"measurement": "Mild TEAE, patients", "setting": "[2]; [5]", "result": "8 (42.1) n (%)"}, {"measurement": "Moderate TEAE, patients", "setting": "[2]; [5]", "result": "6 (31.6) n (%)"}, {"measurement": "Serious TEAEs, patients", "setting": "[2]; [5]", "result": "3 (15.8) n (%)"}, {"measurement": "Severe TEAE, patients", "setting": "[2]; [5]", "result": "2 (10.5) n (%)"}, {"measurement": "TEAEs leading to discontinuation, patients", "setting": "[2]; [5]", "result": "1 (5.3) n (%)"}, {"measurement": "deaths, treatment-related serious AEs, TEAEs related to liver decompensation", "setting": "[2]; PEDFIC 1, 24 weeks", "result": "No deaths, treatment-related serious AEs, or TEAEs related to liver decompensation occurred; also recorded: no deaths or treatment-related serious adverse events"}, {"measurement": "tolerability", "setting": "[2]; PEDFIC 1, 40 and 120 μg/kg/day over 24 weeks", "result": "well tolerated"}, {"measurement": "patients with at least one TEAE", "setting": "[2]; PEDFIC 1, all doses (35 of 42 patients)", "result": 83, "unit": "%"}, {"measurement": "Any TEAE, patients", "setting": "[2]; PEDFIC 1, all doses, n = 42", "result": "35 (83.3) n (%)"}, {"measurement": "Drug-related TEAE, patients", "setting": "[2]; PEDFIC 1, all doses, n = 42", "result": "14 (33.3) n (%)"}, {"measurement": "Drug-related TEAE: ALT increased, patients", "setting": "[2]; PEDFIC 1, all doses, n = 42", "result": "4 (9.5) n (%)"}, {"measurement": "Drug-related TEAE: AST increased, patients", "setting": "[2]; PEDFIC 1, all doses, n = 42", "result": "3 (7.1) n (%)"}, {"measurement": "Drug-related TEAE: Blood bilirubin increased, patients", "setting": "[2]; PEDFIC 1, all doses, n = 42", "result": "4 (9.5) n (%)"}, {"measurement": "Drug-related TEAE: Diarrhea/frequent bowel movements, patients", "setting": "[2]; PEDFIC 1, all doses, n = 42", "result": "4 (9.5) n (%)"}, {"measurement": "Liver-related TEAEs, patients", "setting": "[2]; PEDFIC 1, all doses, n = 42", "result": "11 (26.2) n (%)"}, {"measurement": "Mild TEAE, patients", "setting": "[2]; PEDFIC 1, all doses, n = 42", "result": "19 (45.2) n (%)"}, {"measurement": "Moderate TEAE, patients", "setting": "[2]; PEDFIC 1, all doses, n = 42", "result": "13 (31.0) n (%)"}, {"measurement": "Serious TEAEs, patients", "setting": "[2]; PEDFIC 1, all doses, n = 42", "result": "3 (7.1) n (%)"}, {"measurement": "Severe TEAE, patients", "setting": "[2]; PEDFIC 1, all doses, n = 42", "result": "3 (7.1) n (%)"}, {"measurement": "TEAEs leading to discontinuation, patients", "setting": "[2]; PEDFIC 1, all doses, n = 42", "result": "1 (2.4) n (%)"}, {"measurement": "TEAE vomiting", "setting": "[2]; PEDFIC 1, all doses, placebo 0%", "result": 17, "unit": "%"}, {"measurement": "TEAE ALT increase", "setting": "[2]; PEDFIC 1, all doses, placebo 5%", "result": 14, "unit": "%"}, {"measurement": "TEAE serum bilirubin increase", "setting": "[2]; PEDFIC 1, all doses, placebo 10%", "result": 12, "unit": "%"}, {"measurement": "TEAE upper respiratory tract infection", "setting": "[2]; PEDFIC 1, all doses, placebo 15%", "result": 19, "unit": "%"}, {"measurement": "TEAEs considered related to study drug by the investigator", "setting": "[2]; PEDFIC 1, all doses, placebo 15.0%", "result": 33.3, "unit": "%"}, {"measurement": "TEAE fever", "setting": "[2]; PEDFIC 1, all doses, placebo 25%", "result": 29, "unit": "%"}, {"measurement": "treatment-related AEs of diarrhea or frequent bowel movement", "setting": "[2]; PEDFIC 1, odevixibat-treated patients", "result": 9.5, "unit": "%"}]}]}
